Each structure is given as a SMILES string.

Sequence of human metabotropic Glutamate 4 receptor (Q14833 33-912): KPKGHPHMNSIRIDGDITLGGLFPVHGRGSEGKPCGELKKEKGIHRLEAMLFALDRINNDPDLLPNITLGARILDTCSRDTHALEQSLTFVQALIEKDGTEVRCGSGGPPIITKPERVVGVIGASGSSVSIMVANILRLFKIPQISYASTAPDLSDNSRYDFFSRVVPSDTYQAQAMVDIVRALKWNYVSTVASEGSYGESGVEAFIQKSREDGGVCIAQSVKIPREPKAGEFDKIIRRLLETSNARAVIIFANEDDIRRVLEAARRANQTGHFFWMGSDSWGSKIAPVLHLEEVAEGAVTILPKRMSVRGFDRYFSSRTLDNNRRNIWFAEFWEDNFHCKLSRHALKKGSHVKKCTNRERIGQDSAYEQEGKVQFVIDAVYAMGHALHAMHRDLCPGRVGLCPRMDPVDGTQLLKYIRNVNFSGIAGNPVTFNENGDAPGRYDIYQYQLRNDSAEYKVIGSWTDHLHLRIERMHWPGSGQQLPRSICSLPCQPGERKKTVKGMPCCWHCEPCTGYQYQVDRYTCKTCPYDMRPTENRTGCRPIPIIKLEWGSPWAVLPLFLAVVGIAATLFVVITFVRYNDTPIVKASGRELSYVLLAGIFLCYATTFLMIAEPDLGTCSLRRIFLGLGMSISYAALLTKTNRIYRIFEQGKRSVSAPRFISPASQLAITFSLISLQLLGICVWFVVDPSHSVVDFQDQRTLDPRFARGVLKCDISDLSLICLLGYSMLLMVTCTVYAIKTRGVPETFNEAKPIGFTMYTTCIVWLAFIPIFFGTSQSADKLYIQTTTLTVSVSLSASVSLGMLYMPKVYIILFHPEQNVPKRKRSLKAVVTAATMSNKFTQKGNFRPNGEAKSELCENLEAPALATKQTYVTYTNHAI

For one assay, the target named is human metabotropic Glutamate 4 receptor (Homo sapiens (Human), UniProt Q14833). Description: Assay A: in vitro testing of mGluR4 potency (cAMP HTRF, glutamate/forskolin stimulated). Particulars: HEK293 cells overexpressing human mGluR4; 10 uM L-glutamic acid, 1 uM forskolin; compounds of the present invention. The format is cell-based. Here is the method:
A. In Vitro Testing of mGluR4 Potency The in vitro activity of the compounds according to the invention may be investigated as follows:
The HEK293 cell overexpressing the human metabotropic Glutamate 4 receptor are thawed at 37° C. and immediately diluted with cell culture medium. After centrifugation, the cell pellet is re-suspended in medium and then distributed from a stirred spinner flask into the wells of the assay plate. The plates are incubated for one hour at room temperature before they are incubated for 24 hours at 37° C./5% CO2. After washing the cells in the plate three times with 80 uL HBSS/HEPES buffer (10 uL buffer remained in the wells after washing), 5 uL per well of compounds diluted in HBSS/HEPES buffer containing 0.2% BSA (final concentration: 0.1%) and 1 mM IBMX (final concentration: 0.5 mM) are added to the wells of the assay plate. Thereafter 5 uL per well of L-Glutamic acid (final concentration: 10 uM), forskolin (final concentration: 1 uM) and 1 mM IBMX (final concentration: 0.5 mM) dissolved in HBSS/HEPES buffer containing 0.2% BSA (final concentration: 0.1%) are added to the assay plate (final DMSO concentration: 1%). Several wells of the assay plate are used either for the positive and the negative controls or for the cAMP standard curve. The assay plate is incubated for 30 minutes at room temperature. Then 5 ul per well of Anti-cAMP-Antibody-d2 solution and 5 ul per well of cAMP-Europium Cryptate dilution are added to all wells of the plate and the plate is incubated another 60 minutes light protected at room temperature. The emission at 615 nm and 665 nm (Excitation wavelength: 320 nm) are measured on the EnVision™ reader (Perkin Elmer). The ratio between the emission at 665 nm and 615 is calculated by the reader. The whole assay is performed in the dark or under green light.
The cAMP standard is prepared by diluting the cAMP stock solution with HBSS/Hepes buffer: 5 μl/well of the cAMP dilutions (in HBSS/Hepes buffer containing 1 mM IBMX and 0.2% BSA—final concentration: 0.5 mM IBMX and 0.1% BSA) are added to 10 ul/well HBSS/Hepes buffer plus 5 ul/well 4% DMSO in HBSS/Hepes containing 0.2% BSA (final DMSO concentration: 1% —like in the wells containing compounds) in the wells of the assay plate. The final cAMP concentrations in the assay plate are: 0, 0.17, 0.69, 2.78, 11.1, 44.5, 178, and 712 nM (two wells/cAMP concentration).
Each assay microtiter plate contained also wells with vehicle controls instead of compound as controls for L-Glutamic acid induced signal (negative control; 100% CTL; 10 uM L-Glutamic acid+1 uM forskolin+0.5 mM IBMX+1% DMSO) and wells with vehicle controls without L-Glutamic acid as controls for non-specific changes in signal (positive control; 0% CTL; 0 uM L-Glutamic acid+1 uM forskolin+0.5 mM IBMX+1% DMSO).
The analysis of the data is performed by the calculation the ratio between the emission at 665 nm and the emission at 615 nm (Em665/Em615 ratio). Thereafter the signals of the compounds are normalized using the positive and negative controls by the following formula:
PoC=100×((Signal Sample−Positive Control)/(Negative Control−Positive Control))
The IC50 is the concentration that inhibits the measured activity by half. A higher IC50 goes with a need for much substance. `Cc1cnc(C(=O)NC(c2nc3cc(C(F)(F)F)ccc3n2C)C2COCCO2)cn1` (single isomer, unassigned) [Example 1-1, N-[(1,4-dioxan-2-yl)[1-methyl-5-(trifluoromethyl)-1H-1,3-benzodiazol-2-yl]methyl]-5-methylpyrazine-2-carboxamide] had an IC50 of 0.067 µM.

As for `Cc1cnc(C(=O)NC(c2nc3cc(Cl)ccc3n2CC(F)F)C2COCCO2)cn1` (single isomer, unassigned) [Example 4, N-{[5-chloro-1-(2,2-difluoroethyl)-1H-1,3-benzodiazol-2-yl](1,4-dioxan-2-yl)methyl}-5-methylpyrazine-2-carboxamide], the IC50 was 0.007 µM.

For the compound `Cc1cnc(C(=O)NC(c2nc3cc(Cl)ccc3n2CC(F)F)C2COCCO2)cn1` (single isomer, unassigned) [Example 5], the IC50 came out at 0.062 µM.

`Cc1cnc(C(=O)NC(c2nc3ccc(C(F)(F)F)cc3n2CC(F)F)C2COCCO2)cn1` (single isomer, unassigned) [Example 6] gave an IC50 of 0.006 µM.

As to `Cc1cnc(C(=O)NC(c2nc3ccc(C(F)(F)F)cc3n2C)C2COCCO2)cn1` (single isomer, unassigned) [Example 7, N-[(1,4-dioxan-2-yl)[1-methyl-6-(trifluoromethyl)-1H-1,3-benzodiazol-2-yl]methyl]-5-methylpyrazine-2-carboxamide], the IC50 came out at 0.07 µM.

Compound `Cc1cnc(C(=O)NC(c2nc3cc(F)c(F)cc3n2CC(F)F)C2COCCO2)cn1` (single isomer, unassigned) [Example 9, N-{[1-(2,2-difluoroethyl)-5,6-difluoro-1H-1,3-benzodiazol-2-yl](1,4-dioxan-2-yl)methyl}-5-methylpyrazine-2-carboxamide] came in with a concentration for half-maximal inhibition (IC50) of 0.011 µM.

With `CCn1c(C(NC(=O)c2cnc(C)cn2)C2COCCO2)nc2cc(F)ccc21` (single isomer, unassigned) [Example 10, N-[(1,4-dioxan-2-yl)(1-ethyl-5-fluoro-1H-1,3-benzodiazol-2-yl)methyl]-5-methylpyrazine-2-carboxamide], the IC50 was determined as 0.02 µM.

On to `CCn1c(C(NC(=O)c2cnc(C)cn2)C2COCCO2)nc2cc(F)c(F)cc21` (single isomer, unassigned) [Example 11], for which the IC50 came to 0.015 µM.

Compound `Cc1cnc(C(=O)N[C@H](c2nc3cc(C(F)(F)F)ccc3n2C)[C@H]2COCCO2)cn1` [Example 1, N-[(R)-[(2S)-1,4-dioxan-2-yl][1-methyl-5-(trifluoromethyl)-1H-1,3-benzodiazol-2-yl]methyl]-5-methylpyrazine-2-carboxamide] displayed an IC50 of 0.02 µM.

For `Cc1cnc(C(=O)N[C@H](c2nc3cc(F)ccc3n2CC(F)F)[C@H]2COCCO2)cn1` [Example 2, N-[(R)-[1-(2,2-difluoroethyl)-5-fluoro-1H-1,3-benzodiazol-2-yl][(2S)-1,4-dioxan-2-yl]methyl]-5-methylpyrazine-2-carboxamide], it took 0.014 µM to reach half-maximal inhibition (IC50).

`CCn1c([C@@H](NC(=O)c2cnc(C)cn2)[C@H]2COCCO2)nc2cc(C(F)(F)F)ccc21` [Example 3, N-[(R)-[(2S)-1,4-dioxan-2-yl][1-ethyl-5-(trifluoromethyl)-1H-1,3-benzodiazol-2-yl]methyl]-5-methylpyrazine-2-carboxamide] had an IC50 of 0.005 µM.

`Cc1cnc(C(=O)N[C@H](c2nc3ccc(F)cc3n2CC(F)F)[C@H]2COCCO2)cn1` [Example 8, N-[(R)-[1-(2,2-difluoroethyl)-6-fluoro-1H-1,3-benzodiazol-2-yl][(2S)-1,4-dioxan-2-yl]methyl]-5-methylpyrazine-2-carboxamide]: half-maximal inhibition (IC50) required 0.031 µM.

Still in this assay, the particulars now being: HEK293 cells overexpressing human mGluR4; 10 uM L-glutamic acid, 1 uM forskolin; prior-art compounds of WO2019/138017.
Turning to `Cc1nocc1C(=O)N[C@H](c1nc2cccc(F)c2[nH]1)[C@H]1CC[C@H](C)CC1` [Example 8 in WO2019/ 138017, reference compound], the half-maximal inhibitory concentration (IC50) worked out at 9.85 µM.

Compound `COc1ccc2[nH]c(C(NC(=O)c3conc3C)C3CCCCCCC3)nc2c1F` (centres unmarked) [Example 12 in WO2019/ 138017, reference compound] registered an IC50 above 10 µM.

In the case of `CCn1nccc1C(=O)N[C@H](c1nc2ccc(C#N)c(F)c2[nH]1)[C@H]1CC[C@H](C)CC1` [Example 125 in WO2019/ 138017, reference compound], the IC50 was found to be 5.6 µM.

Compound `Cn1nccc1C(=O)N[C@H](c1nc2c(F)c(Br)ccc2n1C)[C@H]1CC[C@@H](C)CC1` [Intermediate 250 in WO2019/ 138017 (regioisomere 1), reference compound] showed an IC50 of 6.3 µM.

Regarding `Cn1nccc1C(=O)N[C@H](c1nc2c(F)c(Br)ccc2n1C)[C@H]1CC[C@H](C)CC1` [Intermediate 250 in WO2019/ 138017 (regioisomere 2), reference compound], half-maximal inhibition (IC50) was put at 4 µM.

The record behind these values is patent US20240174652A1, “NOVEL DIOXANE DERIVATIVES” (Boehringer Ingelheim International GmbH, priority 2022, published 2024).
